Read-outs that look alike come from different tables or passages of the source.

The target in this assay is T1, cyclooxygenase-2 (COX-2) (Homo sapiens, UniProt P35354).
T1 construct: human osteosarcoma 143 cells (which specifically express cyclooxygenase-2); endogenous in cells; host or cells: human osteosarcoma 143 cells (whole cells, and microsomes prepared from them)
T1 sequence (P35354 18-604): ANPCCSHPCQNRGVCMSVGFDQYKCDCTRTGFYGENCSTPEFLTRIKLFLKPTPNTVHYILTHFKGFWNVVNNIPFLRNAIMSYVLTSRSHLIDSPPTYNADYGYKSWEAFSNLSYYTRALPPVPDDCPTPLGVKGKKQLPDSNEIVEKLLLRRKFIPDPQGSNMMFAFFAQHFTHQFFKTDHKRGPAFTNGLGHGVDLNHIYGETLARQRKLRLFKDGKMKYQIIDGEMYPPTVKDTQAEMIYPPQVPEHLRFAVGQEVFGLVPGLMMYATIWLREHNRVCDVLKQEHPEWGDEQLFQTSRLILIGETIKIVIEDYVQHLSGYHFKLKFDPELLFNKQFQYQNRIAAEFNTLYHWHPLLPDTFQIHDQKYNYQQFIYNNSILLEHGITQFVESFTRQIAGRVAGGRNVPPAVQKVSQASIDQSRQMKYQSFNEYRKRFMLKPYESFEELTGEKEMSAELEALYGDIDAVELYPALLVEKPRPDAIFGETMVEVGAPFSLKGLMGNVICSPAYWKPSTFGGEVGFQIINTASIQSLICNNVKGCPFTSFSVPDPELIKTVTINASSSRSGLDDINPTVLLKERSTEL
The experiment in a line: Whole cell cyclooxygenase assay, COX-2 (PGE2 synthesis in response to arachidonic acid, radioimmunoassay), human osteosarcoma 143 cells. Format: cell-based. The note with it: read-out: Whole Cells COX-2 % inhib.; for inhibition at 0.01 µM: 10 nM; for inhibition at 0.1 µM: 100 nM; for inhibition at 0.08 µM: 80 nM; for inhibition at 0.04 µM: 40 nM. On the procedure: Compounds were tested as inhibitors of cyclooxygenase activity in whole cell and microsomal cyclooxygenase assays. Both of these assays measured prostaglandin E2 (PGE2) synthesis in response to arachidonic acid, using a radioimmunoassay. Cells used for whole cell assays, and from which microsomes were prepared for microsomal assays, were human osteosarcoma 143 cells (which specifically express cyclooxygenase-2) and human U-937 cells (which specifically express cyclooxygenase-1). In these assays, 100% activity is defined as the difference between prostaglandin E2 synthesis in the absence and presence of arachidonate addition.

For the compound `CS(=O)(=O)c1ccc(-c2cnsc2-c2ccc(F)cc2)cc1` [Example 8, 4-(4-(Methylsulfonyl)phenyl)-5-(4-fluorophenyl)-isothiazole], the inhibition at 0.01 µM was found to be 41% and the inhibition at 0.1 µM came out at 89%.

As for `CC1(C)OC(=O)C(c2ccc(F)cc2)=C1c1ccc(S(C)(=O)=O)cc1` [Example 12, 5,5-Dimethyl-3-(4-fluorophenyl)-4-(4-methylsulfonylphenyl)-2-(5H)-furanone], the inhibition at 0.1 µM was 54%.

With `CS(=O)(=O)c1ccc(C2=C(c3ccc(F)cc3F)C(=O)OC2)cc1` [Example 15, 3-(2,4-Difluorophenyl)-4-(4-(methylsulfonyl)phenyl)-2-(5H)-furanone], the inhibition at 0.08 µM amounted to 76%. In addition, where the note is “20 nM”, the inhibition at 0.02 µM amounted to 39%. The inhibition at 0.16 µM (160 nM) turned out to be 95%.

As for `CS(=O)(=O)c1ccc(C2=C(c3ccc(F)c(F)c3)C(=O)OC2)cc1` [Example 16, 3-(3,4-Difluorophenyl)-4-(4-(methylsulfonyl)phenyl)-2-(5H)-furanone], the inhibition at 0.04 µM turned out to be 50%. The inhibition at 0.02 µM (20 nM) worked out at 41%. Further, for the setting “160 nM”, the inhibition at 0.16 µM turned out to be 85%.

For the compound `CS(=O)(=O)c1ccc(C2=C(c3c(F)cccc3F)C(=O)OC2)cc1` [Example 17, 3-(2,6-Difluorophenyl)-4-(4-(methylsulfonyl)phenyl)-2-(5H)-furanone], the inhibition at 0.04 µM was found to be 41%. In addition, the inhibition at 0.16 µM (160 nM) was determined as 77%.

`CS(=O)(=O)c1ccc(C2=C(c3cc(F)ccc3F)C(=O)OC2)cc1` [Example 18, 3-(2,5-Difluorophenyl)-4-(4-(methylsulfonyl)phenyl)-2-(5H)-furanone]: the inhibition at 0.04 µM stood at 24%. Further, for the setting “160 nM”, the inhibition at 0.16 µM was determined as 58%.

On to `CS(=O)(=O)c1ccc(C2=C(c3cc(F)cc(F)c3)C(=O)OC2)cc1` [Example 19, 3-(3,5-Difluorophenyl)-4-(4-(methylsulfonyl)phenyl)-2-(5H)-furanone], for which the inhibition at 0.04 µM turned out to be 21%. The inhibition at 0.16 µM (160 nM) was 59%.

As for `CS(=O)(=O)c1ccc(C2=C(c3ccc(Br)cc3)C(=O)OC2)cc1` [Example 20, 3-(4-Bromophenyl)-4-(4-(methylsulfonyl)phenyl)-2-(5H)-furanone], the inhibition at 0.01 µM came to 70% and the inhibition at 0.04 µM is 91%.

As to `CS(=O)(=O)c1ccc(C2=C(c3ccc(Cl)cc3)C(=O)OC2)cc1` [Example 21, 3-(4-Chlorophenyl)-4-(4-(methylsulfonyl)phenyl)-2-(5H)-furanone], the inhibition at 0.01 µM is 50% and the inhibition at 0.04 µM turned out to be 94%.

In the case of `COc1ccc(C2=C(c3ccc(S(C)(=O)=O)cc3)COC2=O)cc1` [Example 22, 3-(4-Methoxyphenyl)-4-(4-(methylsulfonyl)phenyl)-2-(5H)-furanone], the inhibition at 0.02 µM (20 nM) was 39%. Further, under “160 nM”, the inhibition at 0.16 µM came out at 98%.

Turning to `CS(=O)(=O)c1ccc(C2=C(c3ccccc3)C(=O)OC2)cc1` [Example 23, 3-(Phenyl)-4-(4-(methylsulfonyl)phenyl)-2-(5H)-furanone], the inhibition at 0.02 µM was 50% and the inhibition at 0.16 µM turned out to be 88%.

On to `CS(=O)(=O)c1ccc(C2=C(c3ccccc3Cl)C(=O)OC2)cc1` [Example 24, 3-(2-Chlorophenyl)-4-(4-(methylsulfonyl)phenyl)-2-(5H)-furanone], for which the inhibition at 0.04 µM stood at 43%. In addition, under “160 nM”, the inhibition at 0.16 µM was found to be 78%.

Turning to `CS(=O)(=O)c1ccc(C2=C(c3ccc(F)cc3Br)C(=O)OC2)cc1` [Example 25, 3-(2-Bromo-4-fluorophenyl)-4-(4-(methylsulfonyl)phenyl)-2-(5H)-furanone], where the note is “160 nM”, the inhibition at 0.16 µM turned out to be 40%.

Consider `CS(=O)(=O)c1ccc(C2=C(c3ccc(Cl)cc3Br)C(=O)OC2)cc1` [Example 26, 3-(2-Bromo-4-Chlorophenyl)-4-(4-(methylsulfonyl)phenyl)-2-(5H)-furanone], for which the inhibition at 0.08 µM worked out at 27%. Besides, the inhibition at 0.16 µM (160 nM) turned out to be 39%.

On to `CS(=O)(=O)c1ccc(C2=C(c3ccc(Cl)cc3F)C(=O)OC2)cc1` [Example 27, 3-(4-Chloro-2-fluorophenyl)-4-(4-(methylsulfonyl)phenyl)-2-(5H)-furanone], for which the inhibition at 0.02 µM (20 nM) turned out to be 38%. Moreover, the inhibition at 0.16 µM (160 nM) came out at 97%.

`CS(=O)(=O)c1ccc(C2=C(c3ccc(F)c(Br)c3)C(=O)OC2)cc1` [Example 28, 3-(3-Bromo-4-fluorophenyl)-4-(4-(methylsulfonyl)phenyl)-2-(5H)-furanone]: the inhibition at 0.02 µM (20 nM) came out at 48%. Further, the inhibition at 0.16 µM (160 nM) was 69%.

On to `CS(=O)(=O)c1ccc(C2=C(c3cccc(Cl)c3)C(=O)OC2)cc1` [Example 29, 3-(3-Chlorophenyl)-4-(4-(methylsulfonyl)phenyl)-2-(5H)-furanone], for which the inhibition at 0.02 µM (20 nM) turned out to be 78%. Moreover, the inhibition at 0.16 µM (160 nM) came to 85%.

On to `CS(=O)(=O)c1ccc(C2=C(c3ccc(F)cc3Cl)C(=O)OC2)cc1` [Example 30, 3-(2-Chloro-4-fluorophenyl)-4-(4-(methylsulfonyl)phenyl)-2-(5H)-furanone], for which, for the setting “160 nM”, the inhibition at 0.16 µM was 30%.

Turning to `CS(=O)(=O)c1ccc(C2=C(c3ccc(Cl)cc3Cl)C(=O)OC2)cc1` [Example 31, 3-(2,4-Dichlorophenyl)-4-(4-(methylsulfonyl)phenyl)-2-(5H)-furanone], the inhibition at 0.02 µM (20 nM) is 49%. For the same compound, the inhibition at 0.16 µM (160 nM) was determined as 87%.

As for `CS(=O)(=O)c1ccc(C2=C(c3ccc(Cl)c(Cl)c3)C(=O)OC2)cc1` [Example 32, 3-(3,4-Dichlorophenyl)-4-(4-(methylsulfonyl)phenyl)-2-(5H)-furanone], the inhibition at 0.01 µM worked out at 73%, the inhibition at 0.04 µM was determined as 92% and the inhibition at 0.08 µM was 99%. Further, the inhibition at 0.005 µM (5 nM) was determined as 43%.

Regarding `CS(=O)(=O)c1ccc(C2=C(c3c(Cl)cccc3Cl)C(=O)OC2)cc1` [Example 33, 3-(2,6-Dichlorophenyl)-4-(4-(methylsulfonyl)phenyl)-2-(5H)-furanone], the inhibition at 0.16 µM (160 nM) came out at 6%.

Take `CS(=O)(=O)c1ccc(C2=C(c3ccc(F)c(Cl)c3)C(=O)OC2)cc1` [Example 34, 3-(3-Chloro-4-fluorophenyl)-4-(4-(methylsulfonyl)phenyl)-2-(5H)-furanone]: the inhibition at 0.01 µM was 30% and the inhibition at 0.04 µM came out at 80%. The inhibition at 0.16 µM (160 nM) was 102%.

For the compound `CS(=O)(=O)c1ccc(C2=C(c3ccc(C(F)(F)F)cc3)C(=O)OC2)cc1` [Example 35, 3-(4-Trifluoromethylphenyl)-4-(4-(methylsulfonyl)phenyl)-2-(5H)-furanone], the inhibition at 0.04 µM worked out at 57%. Further, the inhibition at 0.02 µM (20 nM) was 32%. Further, the inhibition at 0.16 µM (160 nM) came to 83%.

Consider `COc1ccc(C2=C(c3ccc(S(C)(=O)=O)cc3)COC2=O)cc1F` [Example 36, 3-(3-Fluoro-4-methoxyphenyl)-4-(4-(methylsulfonyl)phenyl)-2-(5H)-furanone], for which the inhibition at 0.01 µM stood at 11% and the inhibition at 0.04 µM turned out to be 50%. The inhibition at 0.16 µM (160 nM) turned out to be 89%.

Regarding `COc1ccc(C2=C(c3ccc(S(C)(=O)=O)cc3)COC2=O)cc1Cl` [Example 37, 3-(3-Chloro-4-methoxyphenyl)-4-(4-(methylsulfonyl)phenyl)-2-(5H)-furanone], the inhibition at 0.01 µM was 53% and the inhibition at 0.04 µM is 82%. The inhibition at 0.16 µM (160 nM) came out at 93%.

With `COc1ccc(C2=C(c3ccc(S(C)(=O)=O)cc3)COC2=O)cc1Br` [Example 38, 3-(3-Bromo-4-methoxyphenyl)-4-(4-(methylsulfonyl)phenyl)-2-(5H)-furanone], the inhibition at 0.01 µM stood at 25% and the inhibition at 0.04 µM is 63%. Besides, where the note is “160 nM”, the inhibition at 0.16 µM was determined as 88%.

Consider `CS(=O)(=O)c1ccc(C2=C(c3ccccc3F)C(=O)OC2)cc1` [Example 39, 3-(2-Fluorophenyl)-4-(4-(methylsulfonyl)phenyl)-2-(5H)-furanone], for which the inhibition at 0.01 µM is 17%. In addition, the inhibition at 0.16 µM (160 nM) turned out to be 84%.

Regarding `CSc1ccc(C2=C(c3ccc(S(C)(=O)=O)cc3)COC2=O)cc1` [Example 40, 3-(4-Methylthiophenyl)-4-(4-(methylsulfonyl)phenyl)-2-(5H)-furanone], the inhibition at 0.01 µM came to 43% and the inhibition at 0.04 µM stood at 72%. Also, where the note is “160 nM”, the inhibition at 0.16 µM is 96%.

Take `CS(=O)(=O)c1ccc(C2=C(c3c(F)cccc3Cl)C(=O)OC2)cc1` [Example 42, 3-(2-Chloro-6-fluorophenyl)-4-(4-(methylsulfonyl)phenyl)-2-(5H)-furanone]: the inhibition at 0.02 µM (20 nM) was determined as 10%. For the same compound, the inhibition at 0.16 µM (160 nM) turned out to be 44%.

For the origin of these results see patent publication US5767291A, “Phenyl heterocycles as cox-2 inhibitors” (Merck Frosst Canada, Inc., priority 1996, dated 1998).
